Assay [1] relates to Bean (BN). The experiment in a line: Post-emergence herbicide test. Type of assay: in vivo, Phaseolus vulgaris var. Black Valentine. Particulars: Phaseolus vulgaris, post-emergence, 336 h; 8 lb/acre; two weeks after treatment. Summed up:
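Bean seedlings (Phaseolus vulgaris var. Black Valentine) were grown in potting soil in 3' pots until the primary leaves expanded. They were then sprayed under a hood with a removable belt and fixed nozzle, using 50 ml formulations. Afterward they were returned to the greenhouse and watered only by sub-irrigation. Percent control was judged visually two weeks after treatment.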

For assay [2], the system named is Yellow foxtail grass (YF). The assay is described as follows: Post-emergence herbicide test. Type of assay: in vivo, Setaria glauca. The settings on record: Setaria, 336 h, 8 lb/acre, two weeks after treatment. Summed up:
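Visual rating of injury/control made 2 weeks post-spray. Seedlings at a uniform growth stage in soil-filled pots received a hood spray of 8 lbs/acre active compound, 38 gallons/acre volume, with a 4 lbs/acre rate also formulated. Watering was by sub-irrigation only.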

For assay [3], the system named is Barnyard grass (BG). The assay is described as follows: Post-emergence herbicide test. Type of assay: in vivo. The settings on record: Echinochloa crus-galli, 336 h, 8 lb/acre, two weeks after treatment. Summed up:
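Greenhouse pot-grown barnyard grass seedlings sprayed post-emergence at 8 lbs active compound per acre (some at 4 lbs/acre) in 38 gallons per acre, then sub-irrigated. Injury or control rated visually two weeks after treatment.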

The test system of assay [4] is Turnip (TP). The experiment in a line: Pre-emergence herbicide test. Type of assay: in vivo, Brassica sp. The settings on record: Brassica rapa, pre-emergence, 336 h; 8 lb/acre; two weeks after treatment. The gist of the method:
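In this pre-emergence greenhouse test, turnip was seeded on the surface of potting soil in 3' plastic pots, lightly covered with screened soil, and watered from below. One day later the pots were sprayed in a belt-fed spray hood. Watering continued only by sub-irrigation, and percent control was visually scored two weeks after treatment.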

Assay [5] concerns Turnip (TP). The experiment in a line: Post-emergence herbicide test. Format: in vivo, Brassica sp. The settings on record: Brassica rapa, post-emergence, 336 h; 8 lb/acre; two weeks after treatment. Summed up: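 A greenhouse post-emergence herbicide test on turnip. Seeds were sown on the surface of potting soil in 3' plastic pots, lightly covered with screened soil and watered from below. Planting was timed so seedlings had 1 or 2 true leaves above the cotyledons at spraying, done in a hood with a fixed nozzle. Control or injury was scored by eye after two weeks.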

Assay [6] concerns Cotton (CT). The experiment in a line: Post-emergence herbicide test. Format: in vivo, Gossypium hirsutum var. DPL smooth leaf. The settings on record: Gossypium hirsutum, post-emergence, 336 h; 8 lb/acre; two weeks after treatment. Summed up:
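This greenhouse post-emergence test measured how well spray treatments controlled cotton. Seedlings of Gossypium hirsutum var. DPL smooth leaf, with expanded cotyledons and a first true leaf 1' in length, were sprayed with 50 ml formulations in a belt-fed spray hood. They were then returned to the greenhouse and watered only by sub-irrigation. Injury was scored visually as % control after two weeks.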

Assay [7] concerns Cotton (CT). The assay is described as follows: Pre-emergence herbicide test. Format: in vivo, Gossypium hirsutum var. DPL smooth leaf. The settings on record: Gossypium hirsutum, 336 h, 8 lb/acre, two weeks after treatment. The gist of the method: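 Visual injury/control ratings were taken at two weeks post-spray. Pots seeded a day earlier received compound pre-emergence at 8 lbs/acre, or 4 lbs/acre, in a 38 gallon/acre spray volume, and were then held in the greenhouse, watered only from below.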

The test system of assay [8] is Corn (CN). The assay is described as follows: Post-emergence herbicide test. The settings on record: Zea mays, 336 h, 8 lb/acre, two weeks after treatment. Type of assay: in vivo. Summed up: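 Greenhouse seedlings grown in potting soil and sprayed post-emergence at 8 lbs compound/acre (formulations also made for 4 lbs/acre) in 38 gallons/acre spray volume. Watering by sub-irrigation only. Injury or control rated visually two weeks after treatment.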

In assay [9] the test system is Crabgrass (CG). The experiment in a line: Pre-emergence herbicide test. Type of assay: in vivo, Digitaria sanquinalis. Particulars: Digitaria sanguinalis, pre-emergence, 336 h; 8 lb/acre; two weeks after treatment. Summed up:
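Crabgrass (Digitaria sanquinalis) was surface seeded in 3' plastic pots of potting soil, covered with screened soil, and watered by sub-irrigation in greenhouse trays. Pots were seeded one day before spraying in a hood with a moving belt and fixed nozzle. Plants stayed in the greenhouse on sub-irrigation, and pre-emergence control was rated visually two weeks after treatment.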

Assay [10] relates to variety of crops and weed species. The assay is described as follows: Pre- and post-emergence herbicide tests, overall assessment of Tables III-VI. Type of assay: in vivo. Particulars: data of Tables III-VI. As for the experimental part:
All crop and weed species were planted individually in 3' plastic pots containing potting soil. Four seeds each of corn, cotton, and snapbeans were seeded to a depth equal to the diameter of the seed. All other species were surface seeded and sprinkled with screened soil in an amount sufficient to cover the seed. Immediately after planting, all pots were watered by sub-irrigation in greenhouse trays. Pots for the pre-emergence phase were seeded one day before treatment.
Compounds were tested at rates of application equivalent to 8 lbs. of actual compound per acre in a spray volume of 38 gallons per acre. Spray hood constants required to deliver the above volume are as follows:
Two weeks after treatment, pre- and post-emergence injury or control was visually rated, and the results were as shown in the following tables. Pre-emergence data are provided in TABLE III and post-emergence data are provided in TABLE IV, for compounds having the formula illustrated in TABLE I. Correspondingly, pre-emergence and post-emergence data, respectively, are set forth in TABLES V AND VI, for compounds having the formula illustrated in TABLE II.

Assay [11] concerns Bean (BN). The assay is described as follows: Pre-emergence herbicide test. Type of assay: in vivo, Phaseolus vulgaris var. Black Valentine. Particulars: Phaseolus vulgaris, 336 h, 8 lb/acre, two weeks after treatment. The gist of the method:
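Visual injury/control ratings were taken two weeks post-spray on sub-irrigated Phaseolus vulgaris var. Black Valentine. Pots were sown a day before treatment. Pre-emergence spray delivered 8 lbs actual compound per acre (or 4 lbs/acre) at 38 gallons per acre.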

Assay [12] has as its system Johnson grass (JG). The experiment in a line: Pre-emergence herbicide test. Particulars: Sorghum halepense, 336 h, 8 lb/acre, two weeks after treatment. Type of assay: in vivo, Sorgum helepense. The gist of the method:
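Visual injury or control rating two weeks post-treatment, after pre-emergence spray of 8 or 4 lbs active per acre (38 gal/acre) onto pots sown the previous day. Greenhouse watering by sub-irrigation only.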

Assay [13] relates to Corn (CN). The assay is described as follows: Pre-emergence herbicide test. Type of assay: in vivo. The settings on record: Zea mays, 336 h, 8 lb/acre, two weeks after treatment. The gist of the method: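 Visual injury/control ratings were made 2 weeks post-spray on corn pots seeded (4 seeds, seed-diameter depth) the day before treatment. Application was a belt-hood spray of 38 gal/acre delivering 8 lbs active per acre, with a 4 lbs/acre rate also formulated. Watering was by sub-irrigation throughout.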

Assay [14] concerns Barnyard grass (BG). The assay is described as follows: Pre-emergence herbicide test. Format: in vivo. Particulars: Echinochloa crus-galli, 336 h, 8 lb/acre, two weeks after treatment. Summed up: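 Greenhouse pre-emergence spray test: pots seeded one day before treatment received compound at rates of 8 or 4 lb/acre (38 gal/acre). Visual injury/control scores for Echinochloa crus-galli taken at two weeks, with watering by sub-irrigation only.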

In assay [15] the test system is Yellow foxtail grass (YF). The experiment in a line: Pre-emergence herbicide test. Particulars: Setaria, 336 h, 8 lb/acre, two weeks after treatment. Type of assay: in vivo, Setaria glauca. Summed up: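 Visual rating of injury/control made two weeks after a pre-emergence spray of 8 or 4 lbs active per acre (38 gal/acre) onto pots seeded the previous day. Greenhouse watering by sub-irrigation only.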

Assay [16] has as its system Johnson grass (JG). The experiment in a line: Post-emergence herbicide test. Type of assay: in vivo, Sorgum helepense. Particulars: Sorghum halepense, 336 h, 8 lb/acre, two weeks after treatment. Summed up:
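Visual injury or control scores taken 2 weeks after a post-emergence spray of pot-grown plants. Application was 8 lbs/acre (or 4 lbs/acre) in 38 gal/acre. Plants were held in the greenhouse with sub-irrigation only.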

Assay [17] relates to Crabgrass (CG). The experiment in a line: Post-emergence herbicide test. Type of assay: in vivo, Digitaria sanquinalis. The settings on record: Digitaria sanguinalis, post-emergence, 336 h; 8 lb/acre; two weeks after treatment. The gist of the method: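 Crabgrass (Digitaria sanquinalis) was surface seeded individually in 3' plastic pots of potting soil, covered with screened soil, and watered by sub-irrigation in greenhouse trays. Planting was staggered so seedlings reached the target stage together. Post-emergence sprays were applied in a hood with a removable belt and fixed nozzle, and control was visually rated two weeks after treatment.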

Assay [18] relates to Amaranth pigweed (PW). The assay is described as follows: Post-emergence herbicide test. Type of assay: in vivo, Amaranthus retroflexus. The settings on record: 336 h, 8 lb/acre, two weeks after treatment. The gist of the method:
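Visual injury or control ratings were made two weeks after spraying, with greenhouse watering by sub-irrigation only. Treatment was post-emergence, when pigweed seedlings had 1 or 2 true leaves, at 8 lbs active compound per acre (4 lbs/acre formulations also made) in a 38 gallons-per-acre spray volume.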

For assay [19], the system named is Amaranth pigweed (PW). The experiment in a line: Pre-emergence herbicide test. Format: in vivo, Amaranthus retroflexus. The settings on record: 336 h, 8 lb/acre, two weeks after treatment. The gist of the method: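 Visual injury or control ratings were made at two weeks on pre-emergence pots, sub-irrigated in the greenhouse. Seeds were sown a day before a hood spray delivering 8 lbs/acre (or 4 lbs/acre) of compound in 38 gallons per acre.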

In general, pest or weed control refers to how far the test organism was held down. Higher therefore signals strong suppression.

For `O=C(Nc1ccc(Cl)c(Cl)c1)Nc1nnc(C(F)(F)F)s1` [Example 16], the pest or weed control at 8966.8 g/ha worked out at 40% in the assay on Bean (BN) [1]; 20% in [2]; 20% in the assay with Barnyard grass (BG) [3]; 30% in the assay on Turnip (TP) [4]; 40% in the assay on Turnip (TP) [5]; 20% in the assay with Cotton (CT) [6]. Besides, the pest or weed control at 8966.8 g/ha in the assay on Cotton (CT) [7] came to 30%; with Corn (CN) [8], 20%; in the assay on Crabgrass (CG) [9] it was 10%; in the assay with Bean (BN) [11], 80%; with Johnson grass (JG) [12] it was 10%; with Corn (CN) [13], 30%. For the same compound, the pest or weed control at 8966.8 g/ha in the assay on Barnyard grass (BG) [14] worked out at 10%; in [15] it was 10%; with Johnson grass (JG) [16], 20%; in the assay on Crabgrass (CG) [17] it was 20%. Further, the “herbicidal effectiveness / selectivity, in words” value in assay [10] is listed as “more selective when applied to a certain crop or weed species”.

Take `CSc1nnc(N(C)C(=O)N(C)C)s1` [Example 5, 1,1,3-trimethyl-3-[5-methylthio-2-(1,3,4-thiadiazolyl)] urea]: the pest or weed control at 8966.8 g/ha (in the assay on Bean (BN) [1]; in the assay on Amaranth pigweed (PW) [18]; in assay [2]; in the assay with Barnyard grass (BG) [3]; in the assay on Turnip (TP) [4]; with Amaranth pigweed (PW) [19]) was 100% each time. The pest or weed control at 8966.8 g/ha with Turnip (TP) [5] is 100%; in the assay on Cotton (CT) [6], 100%; in the assay on Cotton (CT) [7], 90%; in the assay with Corn (CN) [8], 100%; with Crabgrass (CG) [9], 100%; with Bean (BN) [11], 90%. Further, the pest or weed control at 8966.8 g/ha with Johnson grass (JG) [12] is 50%; in the assay with Corn (CN) [13], 70%; in the assay on Barnyard grass (BG) [14], 80%; in assay [15], 90%; in the assay with Johnson grass (JG) [16], 90%; in the assay with Crabgrass (CG) [17] it was 100%. The “herbicidal effectiveness / selectivity, in words” value in assay [10] is “extremely effective when applied to a variety of crops and weed species”.

In the case of `CCNC(=O)Nc1nnc(C(F)(F)F)s1` [Example 9], the pest or weed control at 8966.8 g/ha with Bean (BN) [1] worked out at 70%; in the assay with Amaranth pigweed (PW) [18], 100%; in assay [2], 30%; in the assay with Barnyard grass (BG) [3] it was 40%; in the assay on Turnip (TP) [4], 10%; in the assay on Turnip (TP) [5], 60%. The pest or weed control at 8966.8 g/ha in the assay with Cotton (CT) [6] stood at 50%; in the assay on Cotton (CT) [7], 30%; in the assay on Corn (CN) [8], 30%; in the assay on Crabgrass (CG) [9] it was 10%; in the assay on Bean (BN) [11], 100%; in the assay on Johnson grass (JG) [12], 10%. Moreover, the pest or weed control at 8966.8 g/ha was 50% with Corn (CN) [13]; 20% in the assay with Barnyard grass (BG) [14]; 20% in assay [15]; 80% in the assay with Johnson grass (JG) [16]; 60% in the assay on Crabgrass (CG) [17]. In assay [10], the “herbicidal effectiveness / selectivity, in words” value is recorded as “more selective when applied to a certain crop or weed species”.

For the compound `O=C(Nc1ccc(Cl)cc1)Nc1nnc(C(F)(F)F)s1` [Example 15], the pest or weed control at 8966.8 g/ha stood at 40% with Bean (BN) [1]; 100% in the assay with Amaranth pigweed (PW) [18]; 20% in [2]; 20% in the assay with Barnyard grass (BG) [3]; 10% in the assay on Turnip (TP) [4]; 50% in the assay on Turnip (TP) [5]. The pest or weed control at 8966.8 g/ha in the assay with Cotton (CT) [6] is 60%; in the assay on Cotton (CT) [7], 80%; in the assay with Corn (CN) [8] it was 20%; in the assay on Crabgrass (CG) [9], 10%; in the assay with Bean (BN) [11], 30%; in the assay with Johnson grass (JG) [12] it was 10%. Besides, the pest or weed control at 8966.8 g/ha was determined as 10% with Corn (CN) [13]; 10% in the assay with Barnyard grass (BG) [14]; 10% in assay [15]; 20% in the assay on Johnson grass (JG) [16]; 30% in the assay on Crabgrass (CG) [17]. Further, the “herbicidal effectiveness / selectivity, in words” value in assay [10] was “more selective when applied to a certain crop or weed species”.

(Values after patent publication US4175081A, “5-Substituted thiadiazole ureas” (priority 1977, dated 1979).)
